Consider 8 compounds from patent EP4578856A1, “HETEROCYCLIC COMPOUND” (Ubience Inc., priority 2022, dated 2024).

Assay [1] addresses T1, human ALK kinase (Homo sapiens, UniProt Q9UM73).
T1 construct: GST (N); purchased Carna Biosciences, Inc; host or cells: baculovirus expression system
The assay can be described thus: ALK kinase inhibitory activity, mobility shift assay (MSA, Carna Biosciences). Format: biochemical. The following applies: inhibition rate at 10 nM. As to the method: The ALK kinase inhibitory activity was measured using a mobility shift assay (MSA) provided by Carna Biosciences, Inc.
The test compound was dissolved in DMSO to prepare a 1 µM solution. The solution was further diluted 25 times with an assay buffer (20 mmol/L HEPES, 0.01%Triton (registered trademark) X-100, 1 mmol/L DTT, pH 7.5) to obtain a test compound solution.
The human ALK kinase was expressed by fusing the cytoplasmic domain (1058 to 1620 amino acids of Accession No. BAG 10812.1) with GST at the N-terminus using the baculovirus expression system. The GST-ALK was purified by glutathione sepharose chromatography. A 4-fold concentration substrate (Srctide, 1000 nmol/L)/ATP (50 µmol/L)/metal solution (Mg, 5 mmol/L) was prepared with kit buffer (20 mmol/L HEPES, 0.01% Triton (registered trademark) X-100, 5 mmol/L DTT, pH 7.5). A 2-fold concentration kinase solution was prepared with assay buffer.
In the same manner as described in Test Example 1, tests and evaluation of inhibitory activity and data analysis were performed.

The target of assay [2] is FAK protein (Homo sapiens, UniProt Q05397). Put plainly: Degradation inducing activity of FAK protein in PA-1 cells, Western blotting (Simple Western JESS). The assay is classed as cell-based. Further details: endogenous in cells; host or cells: PA-1 (ATCC CRL-1572). The following applies: at 10 µM, 24 hours. As to the method: In vitro degradation inducing activity of FAK protein of compounds of Examples was evaluated by Western Blotting (WB).
FAK protein, sequence (Q05397 whole entry): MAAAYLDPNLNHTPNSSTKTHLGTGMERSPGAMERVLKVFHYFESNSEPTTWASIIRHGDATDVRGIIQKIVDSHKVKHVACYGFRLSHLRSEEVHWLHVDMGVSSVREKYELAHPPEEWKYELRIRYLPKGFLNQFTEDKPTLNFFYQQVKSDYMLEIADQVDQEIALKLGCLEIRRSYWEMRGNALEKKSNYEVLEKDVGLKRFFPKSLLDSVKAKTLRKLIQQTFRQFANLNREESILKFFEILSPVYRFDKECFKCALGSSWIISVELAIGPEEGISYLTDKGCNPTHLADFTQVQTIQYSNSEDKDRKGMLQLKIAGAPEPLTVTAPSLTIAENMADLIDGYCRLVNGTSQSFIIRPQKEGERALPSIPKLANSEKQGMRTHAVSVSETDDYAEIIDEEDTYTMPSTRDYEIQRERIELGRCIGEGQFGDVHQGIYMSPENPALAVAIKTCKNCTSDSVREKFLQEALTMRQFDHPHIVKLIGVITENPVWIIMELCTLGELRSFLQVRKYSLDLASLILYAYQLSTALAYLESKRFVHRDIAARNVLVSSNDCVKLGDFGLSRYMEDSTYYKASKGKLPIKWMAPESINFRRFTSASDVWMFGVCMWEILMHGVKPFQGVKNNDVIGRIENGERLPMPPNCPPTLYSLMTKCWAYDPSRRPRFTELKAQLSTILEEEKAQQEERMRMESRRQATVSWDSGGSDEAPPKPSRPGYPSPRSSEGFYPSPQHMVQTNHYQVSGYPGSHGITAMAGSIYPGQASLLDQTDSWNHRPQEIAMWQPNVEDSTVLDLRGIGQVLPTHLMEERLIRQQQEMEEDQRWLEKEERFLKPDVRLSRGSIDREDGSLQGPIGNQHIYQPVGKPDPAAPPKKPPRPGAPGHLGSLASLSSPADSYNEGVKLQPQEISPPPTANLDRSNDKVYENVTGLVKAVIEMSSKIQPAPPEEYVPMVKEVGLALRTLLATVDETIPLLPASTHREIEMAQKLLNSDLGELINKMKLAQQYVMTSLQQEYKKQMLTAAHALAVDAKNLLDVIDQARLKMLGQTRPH
By a test compound, 10 mM DMSO solution was prepared, which was used as a 10 µM test compound solution. Further, the solution was diluted 10-fold with DMSO to prepare a 1 mM solution, which was used as a 1 µM test compound solution.
PA-1 cells (ATCC: CRL-1572, Lot: 70055709) were cultured in Eagle's Minimum Essential Medium supplemented with 10% FBS and 1% Penicillin/Streptomycin. The PA-1 cells seeded in a 24 well plate at 200,000 cells/well/1 mL were cultured for 24 hours, and then 1 µL of DMSO or a test compound solution was added thereto and treatment was performed for 24 hours. Cells were harvested and lysed for 20 minutes on ice using RIPA lysis buffer (Sigma, Cat#R0278) supplemented with protease inhibitor cocktail (Sigma, Cat#P8340; Roche, Cat#P11873580001), and phosphatase inhibitor cocktail (Sigma, Cat#P5726, P0044). The lysate was sonicated (15 seconds, amplitude 30%, 1 cycle) and then centrifuged at 12500 rpm for 15 minutes at 4°C. The protein concentration was determined by BCA assay kit (Thermo Fisher Scientific, Cat#23225).
The western blotting was performed using Simple Western JESS (protein simple). A cell lysis sample (protein amount; about 2 µg) was loaded on a plate of Simple Western JESS, and the expression level of […] was detected using a 12-230 kDa Wes Separation Module (Protein simple, Cat#SM-WO04), an Anti-Rabbit Detection Module for Wes (Protein simple, Cat#DM-001), and a Total Protein Detection Module for Wes (Protein simple, Cat#DM-TP01). As the primary antibody, a material obtained by diluting FAK Rabbit mAb (Cell Signaling Technology, Cat#3285) at 1:100 was used, and as the secondary antibody, a material obtained by diluting HRP-labeled anti-rabbit IgG antibody (Cell Signaling Technology, Cat#7074S) at 1:250 was used. The expression level of the target protein was standardized using the total protein amount loaded as a reference. The standardized expression level data of the control (DMSO) was taken as 100%, and the degradation rate (%) was calculated from the average standardized expression level data of the test compounds (compounds of Examples 109 to 128). All analysis steps, such as data detection and analysis, are fully automated.
On the technique in general: In western blotting, separated proteins are transferred to a membrane and probed.

In assay [3] the target is T2, ROCK2 protein (Homo sapiens, UniProt O75116). Put plainly: Degradation inducing activity of ROCK2 protein in HUVEC cells, Western blotting (Simple Western JESS). Format: cell-based. Details: endogenous in cells; host or cells: HUVEC (ATCC CRL-1730). The following applies: HUVEC, 24 h. In a few lines: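 HUVEC cells treated 24 h with compound at 10 µM or 1 µM, then lysed; ROCK2 quantified by capillary Western (Simple Western JESS) using rabbit mAb D1B1, normalized to total loaded protein. Degradation rate (%) calculated relative to DMSO control set at 100%, binned A ≥75%, B 50–75%, C 25–50%, D <25%.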
Target sequence in this assay (O75116 whole entry): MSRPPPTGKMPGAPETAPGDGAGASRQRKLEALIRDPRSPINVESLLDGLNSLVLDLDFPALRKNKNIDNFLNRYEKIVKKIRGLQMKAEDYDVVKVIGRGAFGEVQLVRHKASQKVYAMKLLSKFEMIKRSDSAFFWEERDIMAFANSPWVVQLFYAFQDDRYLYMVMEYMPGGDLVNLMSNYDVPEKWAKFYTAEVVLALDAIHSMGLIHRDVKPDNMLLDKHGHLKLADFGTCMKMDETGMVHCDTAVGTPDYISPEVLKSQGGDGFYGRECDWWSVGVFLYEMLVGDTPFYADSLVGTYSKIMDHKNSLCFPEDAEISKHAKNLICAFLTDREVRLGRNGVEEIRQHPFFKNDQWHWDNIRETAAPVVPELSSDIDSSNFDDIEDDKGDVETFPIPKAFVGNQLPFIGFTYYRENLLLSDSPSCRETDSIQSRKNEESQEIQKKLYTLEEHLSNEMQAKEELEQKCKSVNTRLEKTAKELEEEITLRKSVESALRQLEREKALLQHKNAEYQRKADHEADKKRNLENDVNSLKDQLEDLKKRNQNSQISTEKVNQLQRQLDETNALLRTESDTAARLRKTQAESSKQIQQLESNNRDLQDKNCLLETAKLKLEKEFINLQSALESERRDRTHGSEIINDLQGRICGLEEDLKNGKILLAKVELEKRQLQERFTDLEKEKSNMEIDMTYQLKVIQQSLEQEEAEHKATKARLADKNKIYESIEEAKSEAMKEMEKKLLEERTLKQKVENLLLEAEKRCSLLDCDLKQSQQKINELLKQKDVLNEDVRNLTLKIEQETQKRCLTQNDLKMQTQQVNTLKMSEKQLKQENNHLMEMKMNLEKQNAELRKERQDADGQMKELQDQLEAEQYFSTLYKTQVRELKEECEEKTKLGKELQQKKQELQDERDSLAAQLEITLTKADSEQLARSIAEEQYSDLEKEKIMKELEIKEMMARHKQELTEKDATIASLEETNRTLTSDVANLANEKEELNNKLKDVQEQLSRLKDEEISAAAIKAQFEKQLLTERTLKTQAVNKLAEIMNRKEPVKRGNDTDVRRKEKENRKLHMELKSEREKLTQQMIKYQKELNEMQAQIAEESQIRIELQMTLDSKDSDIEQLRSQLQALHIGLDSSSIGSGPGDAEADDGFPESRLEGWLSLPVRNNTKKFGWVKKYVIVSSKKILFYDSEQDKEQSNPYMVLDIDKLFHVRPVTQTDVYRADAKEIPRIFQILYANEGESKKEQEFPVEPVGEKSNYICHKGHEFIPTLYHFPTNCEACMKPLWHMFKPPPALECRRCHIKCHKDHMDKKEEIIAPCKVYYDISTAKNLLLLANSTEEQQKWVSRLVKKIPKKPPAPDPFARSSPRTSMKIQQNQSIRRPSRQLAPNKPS

Assay [4] has as its target T2, ROCK2 protein. Put plainly: ROCK2 kinase inhibitory activity, mobility shift assay (MSA, Carna Biosciences). The following applies: evaluation concentration 10 µM; read-out: ROCK2 inhibition rate. Format: biochemical. Details: GST (N); purchased Carna Biosciences, Inc; host or cells: baculovirus expression system. The method, then: The ROCK2 kinase inhibitory activity was measured using a mobility shift assay (MSA) provided by Carna Biosciences, Inc.
The test compound was dissolved in DMSO and further diluted with DMSO to prepare a solution having a concentration 100 times the evaluation concentration. The solution was further diluted 25 times with an assay buffer (20 mmol/L HEPES, 0.01% Triton (registered trademark) X-100, 1 mmol/L DTT, pH 7.5) to obtain a test compound solution.
The human ROCK2 kinase was expressed by fusing the catalytic domain (1 to 553 amino acids of Accession No. NP_004841.2) with GST at the N-terminus using the baculovirus expression system. GST-ROCK2 was purified by glutathione sepharose chromatography.
A 4-fold concentration substrate (LIMKtide, 1000 nmol/L) /ATP (5 µmol/L)/metal solution (Mg, 5 mmol/L) was prepared with kit buffer (20 mmol/L HEPES, 0.01% Triton (registered trademark) X-100, 5 mmol/L DTT, pH 7.5). A 2-fold concentration kinase solution was prepared with assay buffer. 5 µL of a 4-fold concentration test compound solution, 5 µL of a 4-fold concentration substrate/ATP/metal solution, and 10 µL of a 2-fold concentration kinase solution were mixed in a well of a polypropylene 384 well plate, and the mixture was reacted at room temperature for 1 hour. 70 µL of termination buffer (127 mmol/L HEPES, 0.01% Triton (registered trademark) X-100, 26.7 mmol/L EDTA-2Na, 1% DMSO, pH 7.5) was added to stop the reaction. The substrate peptide and the phosphorylated peptide in the reaction solution were separated and quantified using a LabChip (trademark) system (Perkin Elmer).
The kinase reaction was evaluated by the product ratio (P/(P + S)) calculated from the substrate peptide peak height (S) and the phosphorylated peptide peak height (P).
The average signal of the control well including all the reaction components was set to 0% suppression, the average signal of the background well (no enzyme added) was set to 100% suppression, and the inhibition rate was calculated from the average signal of the test compound test well.
The ROCK2 inhibition rate and the evaluation concentration of the test compound are shown in Table 4-1, and the IC50 value of the inhibitory activity is shown in Table 4-2. […]
Target sequence in this assay (O75116 1-553): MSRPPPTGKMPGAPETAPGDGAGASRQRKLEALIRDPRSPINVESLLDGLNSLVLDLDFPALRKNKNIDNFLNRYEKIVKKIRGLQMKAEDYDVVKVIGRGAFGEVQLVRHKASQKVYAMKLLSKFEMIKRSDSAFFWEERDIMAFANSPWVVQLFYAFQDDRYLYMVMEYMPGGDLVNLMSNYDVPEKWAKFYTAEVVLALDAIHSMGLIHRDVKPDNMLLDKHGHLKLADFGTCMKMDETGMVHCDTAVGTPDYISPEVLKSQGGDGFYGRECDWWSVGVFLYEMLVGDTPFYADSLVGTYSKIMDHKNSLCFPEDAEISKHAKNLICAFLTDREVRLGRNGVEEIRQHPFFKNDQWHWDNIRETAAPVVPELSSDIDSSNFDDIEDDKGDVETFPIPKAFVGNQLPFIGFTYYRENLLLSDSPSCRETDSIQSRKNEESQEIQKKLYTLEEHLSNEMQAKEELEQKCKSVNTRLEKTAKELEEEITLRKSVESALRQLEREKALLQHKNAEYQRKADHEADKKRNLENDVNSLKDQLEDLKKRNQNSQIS

Bounds are passed on as bounds.

T1 sequence (Q9UM73 1058-1620): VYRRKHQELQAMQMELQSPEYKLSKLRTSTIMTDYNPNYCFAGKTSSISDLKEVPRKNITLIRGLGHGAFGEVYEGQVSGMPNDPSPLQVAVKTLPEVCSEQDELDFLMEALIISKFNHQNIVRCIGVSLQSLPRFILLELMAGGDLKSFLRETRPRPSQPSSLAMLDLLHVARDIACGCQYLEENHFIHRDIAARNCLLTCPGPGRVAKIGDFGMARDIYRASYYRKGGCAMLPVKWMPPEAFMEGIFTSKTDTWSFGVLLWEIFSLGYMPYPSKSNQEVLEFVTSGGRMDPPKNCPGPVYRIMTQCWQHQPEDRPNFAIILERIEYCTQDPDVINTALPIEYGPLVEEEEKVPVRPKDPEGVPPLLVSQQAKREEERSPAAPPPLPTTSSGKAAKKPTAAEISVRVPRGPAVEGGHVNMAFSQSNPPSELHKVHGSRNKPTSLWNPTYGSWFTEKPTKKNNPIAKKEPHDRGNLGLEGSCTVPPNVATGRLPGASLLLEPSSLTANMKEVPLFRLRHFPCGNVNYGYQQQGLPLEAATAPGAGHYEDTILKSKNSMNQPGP

For orientation: inhibition means the relative decrease from the control value, in per cent. Consider `COC[C@H]1CN[C@H](C)CN1CC(=O)N1CC(C)(C)c2nc(CN(C)CCOCCOCCNC(=O)CN3CCC(c4cc(OC(C)C)c(Nc5ncc(Cl)c(Nc6ccccc6S(=O)(=O)C(C)C)n5)cc4C)CC3)c(Cc3ccc(F)cc3)cc21` [Example 92, 2-(4-(4-((5-Chloro-4-((2-(isopropylsulfonyl)phenyl)amino)pyrimidin-2-yl)amino)-5-isopropoxy-2-methylphenyl)piperidin-1-yl)-N-(2-(2-(2-(((6-(4-fluorobenzyl)-1-(2-((2R,5R)-2-(methoxymethyl)-5-methylpiperazin-1-yl)acetyl)-3,3-dimethyl-2,3-dihydro-1H-pyrrolo[3,2-b]pyridin-5-yl)methyl) (methyl)amino)ethoxy)ethoxy)ethyl) acetamide], for which the inhibition at 0.01 µM in assay [1] was no less than 75%.

On to “2-(4-((6-(4-Fluorobenzyl)-1-(2-((2R,5R)-2-(methoxymethyl)-5-methylpiperazin-1-yl)acetyl)-3,3-dimethyl-2,3-dihydro-1H-pyrrolo[3,2-b]pyridin-5-yl)methyl)piperazin-1-yl)-N-(4-((4-((3-(methylsulfonyl)benzyl)amino)-5-(trifluoromethyl)pyrimidin-2-yl)amino)phenyl)acetamide [Example 114]”, for which the “FAK protein degradation rate” value in assay [2] is recorded as no less than 75%.

Turning to `COC[C@H]1CN[C@H](C)CN1CC(=O)N1CC(C)(C)c2nc(CN(C)CCOCCOCCOCCOCCOCCNC(=O)CN3CCC(c4cc(OC(C)C)c(Nc5ncc(Cl)c(Nc6ccccc6S(=O)(=O)C(C)C)n5)cc4C)CC3)c(Cc3ccc(F)cc3)cc21` [Example 95, 2-(4-(4-((5-Chloro-4-((2-(isopropylsulfonyl)phenyl)amino)pyrimidin-2-yl)amino)-5-isopropoxy-2-methylphenyl)piperidin-1-yl)-N-(1-(6-(4-fluorobenzyl)-1-(2-((2R,5R)-2-(methoxymethyl)-5-methylpiperazin-1-yl)acetyl)-3,3-dimethyl-2,3-dihydro-1H-pyrrolo[3,2-b]pyridin-5-yl)-2-methyl-5,8,11,14,17-pentaoxa-2-azanonadecan-19-yl)acetamide], the inhibition at 0.01 µM in assay [1] is no less than 75%.

Turning to `C[C@@H]1CN(CC(=O)N2CC(C)(C)c3ncc(Cc4ccc(F)cc4)cc32)[C@@H](CN(C)CCOCCOCCOCCOCC(=O)Nc2ccc(Nc3ncc(C(F)(F)F)c(NCc4cccc(S(C)(=O)=O)c4)n3)cc2)CN1` [Example 112, 1-((2R,5R)-1-(2-(6-(4-Fluorobenzyl)-3,3-dimethyl-2,3-dihydro-1H-pyrrolo[3,2-b]pyridin-1-yl)-2-oxoethyl)-5-methylpiperazin-2-yl)-2-methyl-N-(4-((4-((3-(methylsulfonyl)benzyl)amino)-5-(trifluoromethyl)pyrimidin-2-yl)amino)phenyl)-5,8,11,14-tetraoxa-2-azahexadecan-16-amide], in assay [2], the “FAK protein degradation rate” value is listed as no less than 75%.

Turning to `C[C@@H]1CN(CC(=O)N2CC(C)(C)c3ncc(Cc4ccc(F)cc4)cc32)[C@@H](CN(C)CCOCCOCC(=O)Nc2ccc(Nc3ncc(C(F)(F)F)c(NCc4cccc(S(C)(=O)=O)c4)n3)cc2)CN1` [Example 110, 2-(2-(2-((((2R,5R)-1-(2-(6-(4-fluorobenzyl)-3,3-dimethyl-2,3-dihydro-1H-pyrrolo[3,2-b]pyridin-1-yl)-2-oxoethyl)-5-methylpiperazin-2-yl)methyl) (methyl)amino)ethoxy)ethoxy)-N-(4-((4-((3-(methylsulfonyl)benzyl)amino)-5-(trifluoromethyl)pyrimidin-2-yl)amino)phenyl)acetamide], the “FAK protein degradation rate” value in assay [2] is recorded as no less than 75%.

Take `COC[C@H]1CN[C@H](C)CN1CC(=O)N1CC(C)(C)c2ncc(Cc3cccc(OCCOCCOCCOCCOCCOCCOCCN[C@H](C)c4ccc(C(=O)Nc5ccncc5)cc4)c3)cc21` [Example 48, 4-((R)-23-(3-((1-(2-((2R,5R)-2-(Methoxymethyl)-5-methylpiperazin-1-yl)acetyl)-3,3-dimethyl-2,3-dihydro-1H-pyrrolo[3,2-b]pyridin-6-yl)methyl)phenoxy)-6,9,12,15,18,21-hexaoxa-3-azatricosan-2-yl)-N-(pyridin-4-yl)benzamide]: in assay [3] (degradation rate at 1 µM), the inhibition at 1 µM was in the range of 50 to 75%. Further, the inhibition at 10 µM in assay [3] (degradation rate at 10 µM) is 50 to 75%; in assay [4], no less than 75%.

Consider `COC[C@H]1CN[C@H](C)CN1CC(=O)N1CC(C)(C)c2ncc(Cc3cccc(OCCN4CCN(CC(=O)Nc5ccc(Nc6ncc(C(F)(F)F)c(NCc7cccc(S(C)(=O)=O)c7)n6)cc5)CC4)c3)cc21` [Example 124, 2-(4-(2-(3-((1-(2-((2R,5R)-2-(Methoxymethyl)-5-methylpiperazin-1-yl)acetyl)-3,3-dimethyl-2,3-dihydro-1H-pyrrolo[3,2-b]pyridin-6-yl)methyl)phenoxy)ethyl)piperazin-1-yl)-N-(4-((4-((3-(methylsulfonyl)benzyl)amino)-5-(trifluoromethyl)pyrimidin-2-yl)amino)phenyl)acetamide], for which the “FAK protein degradation rate” value in assay [2] is listed as no less than 75%.

On to `COC[C@H]1CN[C@H](C)CN1CC(=O)N1CC(C)(C)c2ncc(Cc3ccccc3OCCN3CCN(CC(=O)Nc4ccc(Nc5ncc(C(F)(F)F)c(NCc6cccc(S(C)(=O)=O)c6)n5)cc4)CC3)cc21` [Example 119, 2-(4-(2-(2-((1-(2-((2R,5R)-2-(Methoxymethyl)-5-methylpiperazin-1-yl)acetyl)-3,3-dimethyl-2,3-dihydro-1H-pyrrolo[3,2-b]pyridin-6-yl)methyl)phenoxy)ethyl)piperazin-1-yl)-N-(4-((4-((3-(methylsulfonyl)benzyl)amino)-5-(trifluoromethyl)pyrimidin-2-yl)amino)phenyl)acetamide], for which the “FAK protein degradation rate” value in assay [2] is reported as no less than 75%.
